Test results from ChEMBL document CHEMBL3132861 (Medchemcomm, 2013).

What was measured:
[1] = Inhibition of microtubule depolymerization in rat A10 cells after 18 hrs by immunofluorescence assay; type: cell-based
[2] = Antiproliferative activity against human MDA-MB-435 cells by SRB assay
[3] = tested on: A10; assay: Inhibition of microtubule depolymerization in rat A10 cells at 75 uM after 18 hrs by immunofluorescence assay; type: cell-based

Row | EC50 [1] [µM] | pEC50 [1] | IC50 [2] [µM] | SMILES | inhibition [3] [%]
1 | 9.9 | 5 |  | CCOC(=O)c1[nH]c(Br)c(-c2ccc(Cl)c(Cl)c2)c1Br | 
2 | > 75 | 3.82 |  | CCOC(=O)c1[nH]c(Br)c(-c2ccc(Cl)cc2)c1Br | 
3 | 20.9 | 4.68 | 4.36 | CCOC(=O)c1[nH]c(Br)c(-c2ccc3c(c2)OCCO3)c1Br | 
4 | 2.4 | 5.62 |  | CCOC(=O)c1[nH]c(Br)c(-c2cccc(OC)c2)c1Br | 
5 | > 75 | 3.82 | 1.99 | CCOC(=O)c1[nH]c(Br)c(-c2ccc3cc(OCC)ccc3c2)c1Br | 
6 | 14 | 4.85 | 2.64 | CCOC(=O)c1[nH]c(Br)c(-c2cc(OC)c(OC)cc2Br)c1Br | 
7 | 7 | 5.15 | 3.24 | CCOC(=O)c1[nH]c(Br)c(-c2cccc3ccccc23)c1Br | 
8 | 7 | 5.15 |  | CCOC(=O)c1[nH]c(Br)c(-c2ccc(OC)cc2)c1Br | 
9 | > 75 | 3.82 | 10.3 | CCOC(=O)c1[nH]c(Br)c(-c2ccccc2)c1Br | 
10 | > 75 | 3.82 | 12.9 | CCOC(=O)c1[nH]c(Br)c(-c2cc(OC)c(OC)c(OC)c2)c1Br | 
11 | 18.5 | 4.73 |  | CCOC(=O)c1[nH]c(Br)c(-c2ccc(SC)cc2)c1Br | 
12 | > 75 | 3.82 | 2.24 | CCOC(=O)c1[nH]c(Br)c(-c2ccc(C)cc2)c1Br | 
13 | 94 | 4.03 |  | CCOC(=O)c1[nH]c(Br)c(-c2ccc(Br)cc2)c1Br | 40
14 | 29.7 | 4.53 |  | CCOC(=O)c1[nH]c(Br)c(-c2ccc3c(c2)OCO3)c1Br | 
15 | 27.1 | 4.57 |  | CCOC(=O)c1[nH]c(Br)c(-c2ccc(OC(F)(F)F)cc2)c1Br | 
16 | 14.1 | 4.85 |  | CCOC(=O)c1[nH]c(Br)c(-c2ccc(OC)c(F)c2)c1Br | 
17 | 17.8 | 4.75 | 1.98 | CCOC(=O)c1[nH]c(Br)c(-c2c[nH]c3ccccc23)c1Br | 
